The assay deals with HCT116 colorectal cancer cells. Kind of assay: Cisplatin sensitization assay (96 h cell viability MTS).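 Note: Test-compound concentration that lowers the Cisplatin IC50 by a set fold.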 Format: cell-based. Particulars: compound and Cisplatin added simultaneously, Cisplatin sensitization value. The essentials:
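Compound and cisplatin added together as a full matrix of 2-fold serial dilutions from a top final concentration of 10 μM; cells incubated 96 h at 37° C, 5% CO2. Viability then read by MTS after 1 h further incubation; sensitization value reported in μM bins.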
Turning to `CN1CCN(c2c(Cl)cncc2NC(=O)c2c(N)nn3cc(Cl)cnc23)CC1` [I-N-41, 2-amino-6-chloro-N-(5-chloro-4-(4-methylpiperazin-1-yl)pyridin-3-yl)pyrazolo[1,5-a]pyrimidine-3-carboxamide], the “Cisplatin Sensitization Assay” value was “+++ (Cisplatin sensitization value of <0.02 μM)”.

For the compound `Nc1nn2cc(F)cnc2c1C(=O)Nc1cncc(F)c1N1CCN(C(=O)CN2CCCC2)CC1` [I-N-187, 2-amino-6-fluoro-N-(5-fluoro-4-(4-(2-(pyrrolidin-1-yl)acetyl)piperazin-1-yl)pyridin-3-yl)pyrazolo[1,5-a]pyrimidine-3-carboxamide], the “Cisplatin Sensitization Assay” value was “+++ (Cisplatin sensitization value of <0.02 μM)”.

As to `Nc1nn2cc(F)cnc2c1C(=O)Nc1cnccc1OC1COC1` [I-O-92, 2-amino-6-fluoro-N-(4-(oxetan-3-yloxy)pyridin-3-yl)pyrazolo[1,5-a]pyrimidine-3-carboxamide], the “Cisplatin Sensitization Assay” value is “+++ (Cisplatin sensitization value of <0.02 μM)”.

For `CC(C)(C)N1CCN(c2ccncc2NC(=O)c2c(N)nn3cc(Cl)cnc23)CC1` [I-N-34, 2-amino-N-(4-(4-(tert-butyl)piperazin-1-yl)pyridin-3-yl)-6-chloropyrazolo[1,5-a]pyrimidine-3-carboxamide], the “Cisplatin Sensitization Assay” value is reported as “++ (Cisplatin sensitization value>0.02 μM but <0.2 μM)”.

As for `Nc1nn2cc(F)cnc2c1C(=O)Nc1cncc(F)c1N1CCCC1` [I-N-246, 2-amino-6-fluoro-N-(5-fluoro-4-(pyrrolidin-1-yl)pyridin-3-yl)pyrazolo[1,5-a]pyrimidine-3-carboxamide], the “Cisplatin Sensitization Assay” value was “++ (Cisplatin sensitization value>0.02 μM but <0.2 μM)”.

Take `CN1CCC[C@H]1C(=O)N1CCN(c2c(F)cncc2NC(=O)c2c(N)nn3cc(F)cnc23)CC1` [I-N-157, (S)-2-amino-6-fluoro-N-(5-fluoro-4-(4-(1-methylpyrrolidine-2-carbonyl)piperazin-1-yl)pyridin-3-yl)pyrazolo[1,5-a]pyrimidine-3-carboxamide]: the “Cisplatin Sensitization Assay” value is “++ (Cisplatin sensitization value>0.02 μM but <0.2 μM)”.

As for `Nc1nn2cc(F)cnc2c1C(=O)Nc1cncc(F)c1N1CCC(C(=O)N2CCN(C3COC3)CC2)CC1` [I-G-32, 2-amino-6-fluoro-N-[5-fluoro-4-[4-[4-(oxetan-3-yl)piperazine-1-carbonyl]-1-piperidyl]-3-pyridyl]pyrazolo[1,5-a]pyrimidine-3-carboxamide], the “Cisplatin Sensitization Assay” value is “+++ (Cisplatin sensitization value of <0.02 μM)”.

On to `Cc1cncc(NC(=O)c2c(N)nn3cc(F)cnc23)c1N1CCN(C2CCOCC2)CC1` [I-N-123, 2-amino-6-fluoro-N-(5-methyl-4-(4-(tetrahydro-2H-pyran-4-yl)piperazin-1-yl)pyridin-3-yl)pyrazolo[1,5-a]pyrimidine-3-carboxamide], for which the “Cisplatin Sensitization Assay” value was “++ (Cisplatin sensitization value>0.02 μM but <0.2 μM)”.

For `Nc1nn2cc(F)cnc2c1C(=O)Nc1cnccc1-c1ccc(C(=O)N2CCN3CCC2CC3)cc1F` [I-C-50, N-(4-(4-(1,4-diazabicyclo[3.2.2]nonane-4-carbonyl)-2-fluorophenyl)pyridin-3-yl)-2-amino-6-fluoropyrazolo[1,5-a]pyrimidine-3-carboxamide], the “Cisplatin Sensitization Assay” value is recorded as “+++ (Cisplatin sensitization value of <0.02 μM)”.

On to `Cc1ccncc1-c1ccncc1NC(=O)c1c(N)nn2cc(F)cnc12` [I-C-30, 2-amino-6-fluoro-N-(4-methyl-[3,4′-bipyridin]-3′-yl)pyrazolo[1,5-a]pyrimidine-3-carboxamide], for which the “Cisplatin Sensitization Assay” value was “+++ (Cisplatin sensitization value of <0.02 μM)”.

In the case of `CN1CC[C@H](Oc2ccncc2NC(=O)c2c(N)nn3cc(F)cnc23)C1` [I-O-1, (S)-2-amino-6-fluoro-N-(4-((1-methylpyrrolidin-3-yl)oxy)pyridin-3-yl)pyrazolo[1,5-a]pyrimidine-3-carboxamide], the “Cisplatin Sensitization Assay” value is “+++ (Cisplatin sensitization value of <0.02 μM)”.

On to `Nc1nn2cc(F)cnc2c1C(=O)Nc1cnccc1N1CCN(C2COC2)CC1` [I-N-1, 2-amino-6-fluoro-N-(4-(4-(oxetan-3-yl)piperazin-1-yl)pyridin-3-yl)pyrazolo[1,5-a]pyrimidine-3-carboxamide], for which the “Cisplatin Sensitization Assay” value is listed as “++ (Cisplatin sensitization value>0.02 μM but <0.2 μM)”.

With `C[C@H]1CN(C2COC2)CCN1c1ccncc1NC(=O)c1c(N)nn2cc(F)cnc12` [I-N-24, (S)-2-amino-6-fluoro-N-(4-(2-methyl-4-(oxetan-3-yl)piperazin-1-yl)pyridin-3-yl)pyrazolo[1,5-a]pyrimidine-3-carboxamide], the “Cisplatin Sensitization Assay” value is listed as “+++ (Cisplatin sensitization value of <0.02 μM)”.

In the case of `Nc1nn2cc(F)cnc2c1C(=O)Nc1cncc(F)c1N1CCN(C(=O)C2CCOC2)CC1` (stereo not shown) [I-N-274, 2-amino-6-fluoro-N-(5-fluoro-4-(4-(tetrahydrofuran-3-carbonyl)piperazin-1-yl)pyridin-3-yl)pyrazolo[1,5-a]pyrimidine-3-carboxamide], the “Cisplatin Sensitization Assay” value is listed as “+++ (Cisplatin sensitization value of <0.02 μM)”.

Turning to `CN1CCN(c2c(F)cncc2NC(=O)c2c(N)nn3cc(F)cnc23)CC1` [I-N-15, 2-amino-6-fluoro-N-(5-fluoro-4-(4-methylpiperazin-1-yl)pyridin-3-yl)pyrazolo[1,5-a]pyrimidine-3-carboxamide], the “Cisplatin Sensitization Assay” value was “+++ (Cisplatin sensitization value of <0.02 μM)”.

Turning to `CN1CCN(C(=O)C2CCN(c3c(F)cncc3NC(=O)c3c(N)nn4cc(F)cnc34)CC2)C2CC21` (stereo not shown) [I-G-65, 2-amino-6-fluoro-N-(5-fluoro-4-(4-(5-methyl-2,5-diazabicyclo[4.1.0]heptane-2-carbonyl)piperidin-1-yl)pyridin-3-yl)pyrazolo[1,5-a]pyrimidine-3-carboxamide], the “Cisplatin Sensitization Assay” value is reported as “+++ (Cisplatin sensitization value of <0.02 μM)”.

`Nc1nn2cc(Cl)cnc2c1C(=O)Nc1cnccc1N1CCN2CCC1CC2` [I-N-56, N-(4-(1,4-diazabicyclo[3.2.2]nonan-4-yl)pyridin-3-yl)-2-amino-6-chloropyrazolo[1,5-a]pyrimidine-3-carboxamide]: the “Cisplatin Sensitization Assay” value is given as “++ (Cisplatin sensitization value>0.02 μM but <0.2 μM)”.

For `Nc1nn2cc(F)cnc2c1C(=O)Nc1cnccc1OC1CCS(=O)(=O)CC1` [I-O-45, 2-amino-N-(4-((1,1-dioxidotetrahydro-2H-thiopyran-4-yl)oxy)pyridin-3-yl)-6-fluoropyrazolo[1,5-a]pyrimidine-3-carboxamide], the “Cisplatin Sensitization Assay” value was “+++ (Cisplatin sensitization value of <0.02 μM)”.

As for `Nc1nn2cc(Cl)cnc2c1C(=O)Nc1cnccc1OC1CCCNC1` (stereo not shown) [I-O-75, 2-amino-6-chloro-N-(4-(piperidin-3-yloxy)pyridin-3-yl)pyrazolo[1,5-a]pyrimidine-3-carboxamide], the “Cisplatin Sensitization Assay” value is “++ (Cisplatin sensitization value>0.02 μM but <0.2 μM)”.

`Nc1nn2cc(F)cnc2c1C(=O)Nc1cncc(F)c1N1CCC(C(=O)N2CC3CNCC3C2)CC1` (stereo not shown) [I-G-51, 2-amino-6-fluoro-N-(5-fluoro-4-(4-(octahydropyrrolo[3,4-c]pyrrole-2-carbonyl)piperidin-1-yl)pyridin-3-yl)pyrazolo[1,5-a]pyrimidine-3-carboxamide]: the “Cisplatin Sensitization Assay” value is given as “+++ (Cisplatin sensitization value of <0.02 μM)”.

Turning to `Cc1nonc1N1CCN(c2ccncc2NC(=O)c2c(N)nn3cc(F)cnc23)CC1` [I-N-260, 2-amino-6-fluoro-N-(4-(4-(4-methyl-1,2,5-oxadiazol-3-yl)piperazin-1-yl)pyridin-3-yl)pyrazolo[1,5-a]pyrimidine-3-carboxamide], the “Cisplatin Sensitization Assay” value is recorded as “+++ (Cisplatin sensitization value of <0.02 μM)”.

As to `CN1CC2(CCC1=O)CCN(c1ccncc1NC(=O)c1c(N)nn3cc(F)cnc13)CC2` [I-N-231, 2-amino-6-fluoro-N-(4-(2-methyl-3-oxo-2,9-diazaspiro[5.5]undecan-9-yl)pyridin-3-yl)pyrazolo[1,5-a]pyrimidine-3-carboxamide], the “Cisplatin Sensitization Assay” value is given as “+++ (Cisplatin sensitization value of <0.02 μM)”.

As for `COC1CN(C(=O)C2CCN(c3c(F)cncc3NC(=O)c3c(N)nn4cc(F)cnc34)CC2)C1` [I-G-21, 2-amino-6-fluoro-N-(5-fluoro-4-(4-(3-methoxyazetidine-1-carbonyl)piperidin-1-yl)pyridin-3-yl)pyrazolo[1,5-a]pyrimidine-3-carboxamide], the “Cisplatin Sensitization Assay” value is given as “+++ (Cisplatin sensitization value of <0.02 μM)”.

For `N#CCc1cnc2c(C(=O)Nc3cnccc3OC3CCOC3)c(N)nn2c1` (racemic) [I-O-37, (R,S)-2-amino-6-(cyanomethyl)-N-(4-((tetrahydrofuran-3-yl)oxy)pyridin-3-yl)pyrazolo[1,5-a]pyrimidine-3-carboxamide], the “Cisplatin Sensitization Assay” value was “+++ (Cisplatin sensitization value of <0.02 μM)”.

On to `Cc1ncnn1-c1ccncc1NC(=O)c1c(N)nn2cc(F)cnc12` [I-N-162, 2-amino-6-fluoro-N-(4-(5-methyl-1H-1,2,4-triazol-1-yl)pyridin-3-yl)pyrazolo[1,5-a]pyrimidine-3-carboxamide], for which the “Cisplatin Sensitization Assay” value is reported as “++ (Cisplatin sensitization value>0.02 μM but <0.2 μM)”.

Take `Nc1nn2cc(F)cnc2c1C(=O)Nc1cncc(F)c1N1CCC(C(=O)N2CC(F)(F)C2)CC1` [I-G-73, 2-amino-N-(4-(4-(3,3-difluoroazetidine-1-carbonyl)piperidin-1-yl)-5-fluoropyridin-3-yl)-6-fluoropyrazolo[1,5-a]pyrimidine-3-carboxamide]: the “Cisplatin Sensitization Assay” value was “+++ (Cisplatin sensitization value of <0.02 μM)”.

As to `Nc1nn2cc(F)cnc2c1C(=O)Nc1cncc(F)c1N1CCC(C(=O)N2CCNC3CC32)CC1` (stereo not shown) [I-G-62, N-(4-(4-(2,5-diazabicyclo[4.1.0]heptane-2-carbonyl)piperidin-1-yl)-5-fluoropyridin-3-yl)-2-amino-6-fluoropyrazolo[1,5-a]pyrimidine-3-carboxamide], the “Cisplatin Sensitization Assay” value was “+++ (Cisplatin sensitization value of <0.02 μM)”.

For `Nc1nn2cc(Cl)cnc2c1C(=O)Nc1cnccc1Oc1cccnc1` [I-O-70, 2-amino-6-chloro-N-(4-(pyridin-3-yloxy)pyridin-3-yl)pyrazolo[1,5-a]pyrimidine-3-carboxamide], the “Cisplatin Sensitization Assay” value was “+++ (Cisplatin sensitization value of <0.02 μM)”.

Source of the values: patent US11370798B2 (Vertex Pharmaceuticals Incorporated, priority 2012, dated 2022).
